In US6479435B1, “Diaryl ethers and processes for their preparation and herbicidal and desiccant compositions containing them” (ISK Americas Incorporated, priority 1997, dated 2002):

How the values were obtained:
Type in all cases: in vivo
[1] = tested on: redroot pigweed (Amaranthus retroflexus, AMARE); assay: Post-emerge greenhouse herbicide test, phytotoxicity rating; details: 14 days after application, scale 0-100
Method in brief: (§1)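 Plants at the 2-3 leaf stage, sown 8-21 days earlier, were track-sprayed post-emergence with compound in acetone plus 0.25% v/v non-ionic surfactant at 63-1000 g ai/ha (187 l/ha). Damage was rated at 14 days on a 0-100 scale (0 none, 100 all plants dead), for both crop injury and weed control.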

[2] = tested on: green foxtail (Setaria viridis, SETVI); assay: as above; details: 14 days after application, scale 0-100
Method in brief: as §1

[3] = tested on: lambsquarters (Chenopodium album, CHEAL); assay: as above; details: 14 days after application, scale 0-100
Method in brief: as §1

[4] = tested on: Johnsongrass (Sorghum halepense, SORHA); assay: as above; details: 14 days after application, scale 0-100
Method in brief: as §1

[5] = tested on: large crabgrass (Digitaria sanguinalis, DIGSA); assay: as above; details: 14 days after application, scale 0-100
Method in brief: as §1

[6] = tested on: velvetleaf (Abutilon theophrasti, ABUTH); assay: as above; details: 14 days after application, scale 0-100
Method in brief: as §1

[7] = tested on: barnyardgrass (Echinochloa crusgalli, ECHCG); assay: as above; details: 14 days after application, scale 0-100
Method in brief: as §1

[8] = tested on: ivyleaf morningglory (Ipomoea hederacea, IPOHE); assay: as above; details: 14 days after application, scale 0-100
Method in brief: as §1

[9] = tested on: soybean (Glycine max L., var. Pella 86, SOY); assay: Post-emerge greenhouse test, crop damage rating; parameters: key to crop damage rating SOY: 0-100 scale: 0 = no damage, 100 = complete death of all plants; details: 14 days after application, scale 0-100
Method in brief: as §1

[10] = tested on: soybean (Glycine max L., var. Pella 86, SOY); assay: Pre-emerge greenhouse test, crop damage rating; parameters: key to SOY crop damage rating: 0 = no damage, 100 = complete death of all plants; details: 14 days after application, rating scale 0-100
Method in brief: (§2)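 Seeds sown in sandy loam one day before track-sprayer application of acetone solutions at 125–1000 g ai/ha (187 l/ha), then surface-watered to incorporate and bottom-watered. Injury scored visually at 14 days on a 0–100 scale (0 no damage, 100 complete death).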

[11] = tested on: upland rice (Oryza sp., var.Tebonnet, RICE); assay: Pre-emerge greenhouse test, crop damage rating; details: 14 days after application, rating scale 0-100
Method in brief: as §2

[12] = tested on: field corn (Zea mays L., var. Dekalb 535, CORN); assay: Pre-emerge greenhouse test, crop damage rating; details: 14 days after application, rating scale 0-100
Method in brief: as §2

[13] = tested on: common ragweed (Ambrosia artemisiifolia L., AMBEL); assay: Post-emerge greenhouse herbicide test, phytotoxicity rating; details: 14 days after application, scale 0-100
Method in brief: as §1

[14] = tested on: redroot pigweed (Amaranthus retroflexus, AMARE); assay: Pre-emerge greenhouse herbicide test, phytotoxicity rating; details: 14 days after application, rating scale 0-100
Method in brief: as §2

[15] = tested on: common ragweed (Ambrosia artemisiifolia L., AMBEL); assay: as above; details: 14 days after application, rating scale 0-100
Method in brief: as §2

[16] = tested on: sicklepod (Cassia obtusifolia, CASOB); assay: as above; details: 14 days after application, rating scale 0-100
Method in brief: as §2

[17] = tested on: green foxtail (Setaria viridis, SETVI); assay: as above; details: 14 days after application, rating scale 0-100
Method in brief: as §2

[18] = tested on: lambsquarters (Chenopodium album, CHEAL); assay: as above; details: 14 days after application, rating scale 0-100
Method in brief: as §2

[19] = tested on: Johnsongrass (Sorghum halepense, SORHA); assay: as above; details: 14 days after application, rating scale 0-100
Method in brief: as §2

[20] = tested on: large crabgrass (Digitaria sanguinalis, DIGSA); assay: as above; details: 14 days after application, rating scale 0-100
Method in brief: as §2

[21] = tested on: velvetleaf (Abutilon theophrasti, ABUTH); assay: as above; details: 14 days after application, rating scale 0-100
Method in brief: as §2

[22] = tested on: barnyardgrass (Echinochloa crusgalli, ECHCG); assay: as above; details: 14 days after application, rating scale 0-100
Method in brief: as §2

[23] = tested on: ivyleaf morningglory (Ipomoea hederacea, IPOHE); assay: as above; details: 14 days after application, rating scale 0-100
Method in brief: as §2

[24] = tested on: upland rice (Oryza sp., var.Tebonnet, RICE); assay: Post-emerge greenhouse test, crop damage rating; details: 14 days after application, scale 0-100
Method in brief: as §1

[25] = tested on: field corn (Zea mays L., var. Dekalb 535, CORN); assay: Post-emerge greenhouse test, crop damage rating; details: 14 days after application, scale 0-100
Method in brief: as §1

Nc1ccc(Oc2cc(-n3c(=O)n4n(c3=S)CCCC4)c(F)cc2Cl)nc1 [Compound 8-24]
0: phytotoxicity rating SETVI ([2]; rate 63 g ai/ha) | phytotoxicity rating SORHA ([4]; rate 63 g ai/ha) | phytotoxicity rating ECHCG ([7]; rate 500 g ai/ha) | crop damage rating SOY ([9]; rate 63 g ai/ha) | SOY crop damage rating ([10]; Rate 125 g al/ha) | RICE crop damage rating ([11]; Rate 125 g al/ha) | CORN crop damage rating ([12]; Rate 125 g al/ha) | CORN crop damage rating ([12]; Rate 500 g al/ha) | phytotoxicity rating AMBEL ([13]; rate 63 g ai/ha) | DIGSA phytotoxicity rating ([20]; Rate 125 g al/ha) | ECHCG phytotoxicity rating ([22]; Rate 125 g al/ha) | IPOHE phytotoxicity rating ([23]; Rate 125 g al/ha)
99: CHEAL phytotoxicity rating ([18]; Rate 125 g al/ha)
30: SOY crop damage rating ([10]; Rate 500 g al/ha) | SETVI phytotoxicity rating ([17]; Rate 125 g al/ha) | DIGSA phytotoxicity rating ([20]; Rate 500 g al/ha) | crop damage rating RICE ([24]; rate 500 g ai/ha)
80: phytotoxicity rating CHEAL ([3]; rate 500 g ai/ha) | phytotoxicity rating IPOHE ([8]; rate 500 g ai/ha) | AMBEL phytotoxicity rating ([15]; Rate 125 g al/ha) | SETVI phytotoxicity rating ([17]; Rate 500 g al/ha)
95: phytotoxicity rating ABUTH ([6]; rate 63 g ai/ha) | AMARE phytotoxicity rating ([14]; Rate 125 g al/ha)
40: crop damage rating SOY ([9]; rate 500 g ai/ha) | ECHCG phytotoxicity rating ([22]; Rate 500 g al/ha)
50: phytotoxicity rating CHEAL ([3]; rate 63 g ai/ha) | phytotoxicity rating SORHA ([4]; rate 500 g ai/ha) | phytotoxicity rating DIGSA ([5]; rate 63 g ai/ha) | phytotoxicity rating AMBEL ([13]; rate 500 g ai/ha) | CASOB phytotoxicity rating ([16]; Rate 500 g al/ha)
20: phytotoxicity rating SETVI ([2]; rate 500 g ai/ha) | phytotoxicity rating DIGSA ([5]; rate 500 g ai/ha) | RICE crop damage rating ([11]; Rate 500 g al/ha) | SORHA phytotoxicity rating ([19]; Rate 125 g al/ha) | SORHA phytotoxicity rating ([19]; Rate 500 g al/ha) | crop damage rating RICE ([24]; rate 63 g ai/ha)
10: phytotoxicity rating ECHCG ([7]; rate 63 g ai/ha) | crop damage rating CORN ([25]; rate 63 g ai/ha) | crop damage rating CORN ([25]; rate 500 g ai/ha)
70: phytotoxicity rating IPOHE ([8]; rate 63 g ai/ha) | CASOB phytotoxicity rating ([16]; Rate 125 g al/ha) | IPOHE phytotoxicity rating ([23]; Rate 500 g al/ha)
100: phytotoxicity rating AMARE ([1]; rate 63 g ai/ha) | phytotoxicity rating AMARE ([1]; rate 500 g ai/ha) | phytotoxicity rating ABUTH ([6]; rate 500 g ai/ha) | AMARE phytotoxicity rating ([14]; Rate 500 g al/ha) | AMBEL phytotoxicity rating ([15]; Rate 500 g al/ha) | CHEAL phytotoxicity rating ([18]; Rate 500 g al/ha) | ABUTH phytotoxicity rating ([21]; Rate 125 g al/ha) | ABUTH phytotoxicity rating ([21]; Rate 500 g al/ha)

Cc1nsc(Oc2cc(-n3c(=O)n4n(c3=S)CCCC4)c(F)cc2Cl)c1[N+](=O)[O-] [Compound 8-35]
0: phytotoxicity rating DIGSA ([5]; rate 63 g ai/ha) | phytotoxicity rating ECHCG ([7]; rate 63 g ai/ha) | SOY crop damage rating ([10]; Rate 125 g al/ha) | DIGSA phytotoxicity rating ([20]; Rate 125 g al/ha)
90: crop damage rating SOY ([9]; rate 500 g ai/ha) | AMBEL phytotoxicity rating ([15]; Rate 500 g al/ha) | SETVI phytotoxicity rating ([17]; Rate 125 g al/ha) | SORHA phytotoxicity rating ([19]; Rate 500 g al/ha) | ECHCG phytotoxicity rating ([22]; Rate 500 g al/ha)
99: phytotoxicity rating CHEAL ([3]; rate 500 g ai/ha)
50: AMBEL phytotoxicity rating ([15]; Rate 125 g al/ha) | IPOHE phytotoxicity rating ([23]; Rate 125 g al/ha) | crop damage rating RICE ([24]; rate 500 g ai/ha)
100: phytotoxicity rating AMARE ([1]; rate 500 g ai/ha) | phytotoxicity rating ABUTH ([6]; rate 63 g ai/ha) | phytotoxicity rating ABUTH ([6]; rate 500 g ai/ha) | AMARE phytotoxicity rating ([14]; Rate 125 g al/ha) | AMARE phytotoxicity rating ([14]; Rate 500 g al/ha) | CASOB phytotoxicity rating ([16]; Rate 500 g al/ha) | SETVI phytotoxicity rating ([17]; Rate 500 g al/ha) | CHEAL phytotoxicity rating ([18]; Rate 125 g al/ha) | CHEAL phytotoxicity rating ([18]; Rate 500 g al/ha) | ABUTH phytotoxicity rating ([21]; Rate 125 g al/ha) | ABUTH phytotoxicity rating ([21]; Rate 500 g al/ha) | IPOHE phytotoxicity rating ([23]; Rate 500 g al/ha)
80: phytotoxicity rating CHEAL ([3]; rate 63 g ai/ha) | phytotoxicity rating SORHA ([4]; rate 500 g ai/ha) | phytotoxicity rating ECHCG ([7]; rate 500 g ai/ha) | DIGSA phytotoxicity rating ([20]; Rate 500 g al/ha)
60: phytotoxicity rating SETVI ([2]; rate 500 g ai/ha)
30: SOY crop damage rating ([10]; Rate 500 g al/ha) | CORN crop damage rating ([12]; Rate 125 g al/ha) | CORN crop damage rating ([12]; Rate 500 g al/ha) | CASOB phytotoxicity rating ([16]; Rate 125 g al/ha)
70: RICE crop damage rating ([11]; Rate 500 g al/ha)
20: crop damage rating SOY ([9]; rate 63 g ai/ha) | SORHA phytotoxicity rating ([19]; Rate 125 g al/ha) | crop damage rating RICE ([24]; rate 63 g ai/ha)
10: phytotoxicity rating DIGSA ([5]; rate 500 g ai/ha) | phytotoxicity rating AMBEL ([13]; rate 63 g ai/ha) | phytotoxicity rating AMBEL ([13]; rate 500 g ai/ha) | ECHCG phytotoxicity rating ([22]; Rate 125 g al/ha) | crop damage rating CORN ([25]; rate 63 g ai/ha) | crop damage rating CORN ([25]; rate 500 g ai/ha)
95: phytotoxicity rating AMARE ([1]; rate 63 g ai/ha) | phytotoxicity rating IPOHE ([8]; rate 500 g ai/ha)
40: phytotoxicity rating SETVI ([2]; rate 63 g ai/ha) | phytotoxicity rating IPOHE ([8]; rate 63 g ai/ha)
